# Measurements: patent US20250332096A1, “BEVERAGE FORMULATION AND METHOD OF PROMOTING CELLULAR HYDRATION BY ENHANCING INTRACELLULAR PERMEATION” (Eastpond Laboratories Limited, priority 2024, published 2025)
# Key:
# [1] = Visual inspection (clarity) of test solutions; assay type: physicochemical; conditions: purified water
# Method: (§1) 1:1 mol/mol stoichiometry complexes were prepared for the experiment. Nicotinic acid/alpha-CD complex was prepared by dissolving 11.22 g nicotinic acid and 98.63 g alpha-CD (89.66 g on dry basis) in 700 ml purified water. Nicotinamide/alpha-CD complex was prepared by dissolving 5.57 g nicotinamide and 49.3 g alpha-CD (44.4 g on dry basis) in 350 ml purified water and L-arginine/alpha-CD complex was prepared by dissolving 15.18 g L-arginine and 94.26 g alpha-CD (85.69 g on dry basis) in 700 ml purified water. Further, for all the three complexes, the liquid was frozen in dry ice bath and lyophilized. The dry lyophilizate was ground and sieved.
# (§2) Clarity, pH, conductivity, density, viscosity, turbidity, surface tension and osmolality were determined in solutions prepared with purified water. […]
# [2] = Viscosity of test solutions; assay type: physicochemical; conditions: purified water, 2.00%
# Method: as §1
# Clarity, pH, conductivity, density, viscosity, turbidity, surface tension and osmolality were determined in solutions prepared with purified water.
# [3] = pH of test solutions; assay type: physicochemical; conditions: purified water
# Method: as §1, §2
# [4] = test system: C. elegans; test: C. elegans longevity in hydration modified water (Example 5); assay type: in vivo; conditions: for Animals alive, % of initial: 0.1% w/w in nutritive media, USA I water
# Method: C. elegans nematodes were grown in petri-type dishes containing normal nutrient liquid media prepared alternatively with USA I water (described in Example 2) lacking any further additive component (control) or the same water supplemented with a parent α-, β-, or γ-cyclodextrin, and/or a bioactive agent, as an active component of cellular hydration. Fifty ±3 worms were transferred to each dish. Each condition was repeated in triplicate. Experiments were repeated for USA II and BP I waters described in Example 2.
# • A. Addition of parent α-, β- and γ-cyclodextrins. • B. Addition of L-arginine and nicotinamide. • C. Addition of inclusion complexes of cyclodextrins with L-arginine and nicotinamide.
# [5] = Density measurements of test solutions; assay type: physicochemical
# Method: The current study further manifests the density measurements in a cyclodextrin concentration dependent manner.
# Water samples used were bottled water and tap water; wherein the tap water comprises the following impurities and properties: Free active chlorine (0.18 mg/1), Chloride (24 mg/1), Iron (6 μg/1), Manganese (2 μg/1), Nitrate (9 mg/1), Nitrite (<0.03 mg/1), Ammonium (<0.04 mg/1), Hardness of water (122 mg/l CaO), Conductivity (442 μS/cm) and pH 8. Purified water was produced by removal of dissolved ions by Merck/Millipore Synergy® Water Purification System at Cyclolab. The water quality produced Type 1 water (18.2 MΩ·cm at 25° C. ultrapure water) from pretreated water.
# as §1, §2
# However, it may not be established exactly which ionic species (Mg2+, Ca2+, Na+) causes this perturbation.
# [6] = Surface tension of test solutions; assay type: physicochemical; conditions: purified water
# Method: as §1, §2
# [7] = Turbidity of test solutions; assay type: physicochemical; conditions: purified water (reference)
# Method: as §1, §2
# [8] = Conductivity of test solutions; assay type: physicochemical; conditions: purified water
# Method: as §1, §2
smiles,measurement,setting,value
"OC[C@H]1O[C@@H]2O[C@H]3[C@H](O)[C@@H](O)[C@@H](O[C@H]4[C@H](O)[C@@H](O)[C@@H](O[C@H]5[C@H](O)[C@@H](O)[C@@H](O[C@H]6[C@H](O)[C@@H](O)[C@@H](O[C@H]7[C@H](O)[C@@H](O)[C@@H](O[C@H]8[C@H](O)[C@@H](O)[C@@H](O[C@H]9[C@H](O)[C@@H](O)[C@@H](O[C@H]1[C@H](O)[C@H]2O)O[C@@H]9CO)O[C@@H]8CO)O[C@@H]7CO)O[C@@H]6CO)O[C@@H]5CO)O[C@@H]4CO)O[C@@H]3CO [Gamma Cyclodextrin, γ-cyclodextrin]",Visual Inspection,[1]; 0.05%,clear
same,Visual Inspection,[1]; 0.10%,clear
same,Visual Inspection,[1]; 1.00%,hazy
same,Visual Inspection,[1]; 2.00%,hazy
same,Viscosity (25 C.),[2],0.97 cP
same,pH,[3]; 0.05%,6.82
same,pH,[3]; 0.10%,6.79
same,pH,[3]; 1.00%,6.87
same,pH,[3]; 2.00%,6.77
same,number of animals surviving to old ages,"[4]; after day 15, 0.1% w/w",significantly increased
same,"Animals alive, % of initial",[4]; life span 10 days,100 % of initial
same,"Animals alive, % of initial",[4]; life span 15 days,13 % of initial
same,"Animals alive, % of initial",[4]; life span 18 days,2 % of initial
same,Density (at 22 C.),"[5]; Tap water, 0.05%",0.9997 ± 0.0007 g/cm³
same,Density (at 22 C.),"[5]; Tap water, 0.10%",1.0002 ± 0.0004 g/cm³
same,Density (at 22 C.),"[5]; Tap water, 1.00%",1.0035 ± 0.0007 g/cm³
same,Density (at 22 C.),"[5]; Tap water, 2.00%",1.0094 ± 0.0006 g/cm³
same,Density (at 22 C.),"[5]; purified water, 0.05%",0.995 ± 0.001 g/cm³
same,Surface Tension,[6]; 0.05%,72 mN · m^−1
same,Surface Tension,[6]; 0.10%,72 mN · m^−1
same,Surface Tension,[6]; 1.00%,73 mN · m^−1
same,Surface Tension,[6]; 2.00%,73 mN · m^−1
same,"Turbidity (Abs, λ = 410 nm)",[7]; 1.00%,0.065 Abs
same,"Turbidity (Abs, λ = 410 nm)",[7]; 2.00%,0.108 Abs
same,Conductivity,[8]; 0.05%,25.0 μS · cm^−1
same,Conductivity,[8]; 0.10%,25.0 μS · cm^−1
same,Conductivity,[8]; 1.00%,27.0 μS · cm^−1
same,Conductivity,[8]; 2.00%,27.0 μS · cm^−1
